Measured values reported in ChEMBL document CHEMBL1131396, “Structure-activity studies related to ABT-594, a potent nonopioid analgesic agent: effect of pyridine and azetidine ring substitutions on nicotinic acetylcholine receptor binding affinity and analgesic activity in mice” (Bioorg Med Chem Lett, 1998).

How the values were obtained:
Mus musculus = species on record: Mus musculus; test: Analgesic activity in a mouse hot plate assay; assay type: functional
[1] = biological target: Neuronal acetylcholine receptor; alpha4/beta2 (Rattus norvegicus, UniProt P09483+P12390); test: Binding affinity towards Nicotinic acetylcholine receptor alpha4-beta2 in rat brain using [3H]-cytisine as radioligand; assay type: tissue-based
Chain of Neuronal acetylcholine receptor; alpha4/beta2 (P09483 whole entry): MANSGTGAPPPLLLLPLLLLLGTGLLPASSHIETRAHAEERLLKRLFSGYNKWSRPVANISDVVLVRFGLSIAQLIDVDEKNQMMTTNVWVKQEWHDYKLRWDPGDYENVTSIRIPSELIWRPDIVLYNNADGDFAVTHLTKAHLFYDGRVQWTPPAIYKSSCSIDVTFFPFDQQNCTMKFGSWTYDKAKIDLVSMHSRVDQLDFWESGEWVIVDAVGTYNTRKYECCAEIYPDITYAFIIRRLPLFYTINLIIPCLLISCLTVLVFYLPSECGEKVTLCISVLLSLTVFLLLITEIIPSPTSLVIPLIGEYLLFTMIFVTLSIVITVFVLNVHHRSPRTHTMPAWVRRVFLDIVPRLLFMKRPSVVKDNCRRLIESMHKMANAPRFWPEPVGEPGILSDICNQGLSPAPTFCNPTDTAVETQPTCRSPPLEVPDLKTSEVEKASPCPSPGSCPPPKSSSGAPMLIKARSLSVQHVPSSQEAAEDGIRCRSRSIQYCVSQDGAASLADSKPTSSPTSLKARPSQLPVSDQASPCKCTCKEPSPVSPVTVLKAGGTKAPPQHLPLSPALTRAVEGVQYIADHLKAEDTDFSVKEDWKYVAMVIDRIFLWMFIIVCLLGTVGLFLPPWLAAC
Chain of Neuronal acetylcholine receptor; alpha4/beta2 (P12390 whole entry): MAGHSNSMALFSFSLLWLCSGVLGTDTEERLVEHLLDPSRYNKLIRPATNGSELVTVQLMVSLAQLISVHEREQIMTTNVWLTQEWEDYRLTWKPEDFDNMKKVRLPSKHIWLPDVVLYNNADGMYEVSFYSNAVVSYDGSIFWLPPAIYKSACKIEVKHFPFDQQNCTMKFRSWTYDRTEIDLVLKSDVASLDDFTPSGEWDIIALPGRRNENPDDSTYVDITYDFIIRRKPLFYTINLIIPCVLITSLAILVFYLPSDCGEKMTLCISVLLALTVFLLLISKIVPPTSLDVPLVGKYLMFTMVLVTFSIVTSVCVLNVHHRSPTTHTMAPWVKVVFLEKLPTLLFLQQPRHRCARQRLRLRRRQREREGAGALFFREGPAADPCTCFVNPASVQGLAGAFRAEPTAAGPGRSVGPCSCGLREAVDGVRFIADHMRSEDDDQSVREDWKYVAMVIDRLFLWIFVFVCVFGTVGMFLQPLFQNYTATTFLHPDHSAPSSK

IMR-32 [2] = test: Maximal response of compound was determined in an in vitro [86Rb+] release assay using IMR-32 cells; assay type: functional, Homo sapiens
IMR-32 [3] = test: Maximal response of compound at concentration 3 uM concentration in an in vitro [86Rb+] release assay using IMR-32 cells; assay type: functional, Homo sapiens
IMR-32 [4] = test: Maximal response of compound at 10 uM concentration in an in vitro [86Rb+] release assay using IMR-32 cells; assay type: functional, Homo sapiens
IMR-32 [5] = test: Maximal response of compound at 1 uM concentration in an in vitro [86Rb+] release assay using IMR-32 cells; assay type: functional, Homo sapiens

Compound | MED (Mus musculus) [µM/kg] | Ki [1] [nM] | further results
Oc1cncc(OC[C@H]2CCN2)c1 | >62 | 0.088 | –
Cc1cncc(OC[C@H]2CCN2)c1 | 62 | 0.16 | –
Cc1cncc(OC[C@@H]2CCN2)c1 | >62 | 0.047 | –
O=[N+]([O-])c1cncc(OC[C@@H]2CCN2)c1 | 62 | – | –
Fc1cncc(OC[C@@H]2CCN2)c1 | 6.2 | 0.076 | –
CC1(C)CN[C@H]1COc1ccc(Cl)nc1 | – | 37 | –
COc1ccc(OC[C@@H]2CCN2)cn1 | >62 | 1.3 | –
CCCc1cncc(OC[C@@H]2CCN2)c1 | 62 | 0.039 | –
Clc1cncc(OC[C@@H]2CCN2)c1 | >6.2 | 0.042 | –
CC(=O)NCc1cncc(OC[C@@H]2CCN2)c1 | >62 | 0.54 | –
Cc1ccc(OC[C@@H]2CCN2)cn1 | 0.62 | 0.057 | –
Cc1ncccc1OC[C@@H]1CCN1 | >62 | 1.36 | –
C[C@@H]1CN[C@H]1COc1ccc(Cl)nc1 | – | 7.6 | –
CCOc1cncc(OC[C@@H]2CCN2)c1 | 62 | 0.039 | –
Clc1ccncc1OC[C@@H]1CCN1 | >62 | 260 | –
c1ccc(-c2ccc(OC[C@@H]3CCN3)cn2)cc1 | >62 | 2.3 | –
c1cncc(OC[C@@H]2CCN2)c1 | >6.2 | 0.052 | Max response (IMR-32 [2]): 113%
c1ccc(-c2cncc(OC[C@@H]3CCN3)c2)cc1 | >62 | 0.046 | Max response (IMR-32 [3]): 45%
FC(F)(F)c1cncc(OC[C@@H]2CCN2)c1 | >19 | 0.49 | –
Fc1ncccc1OC[C@@H]1CCN1 | 1.9 | – | –
Clc1ncccc1OC[C@H]1CCN1 | 62 | – | –
Brc1ccc(OC[C@@H]2CCN2)cn1 | >6.2 | 0.021 | –
C=Cc1ccc(OC[C@@H]2CCN2)cn1 | >62 | 1.25 | –

Compound | MED (Mus musculus) [µM/kg] | Ki [1] [nM] | further results
Clc1ncccc1OC[C@@H]1CCN1 | 62 | – | –
Cc1ccc(OC[C@H]2CCN2)cn1 | 6.2 | 0.053 | –
Nc1cncc(OC[C@@H]2CCN2)c1 | >62 | 0.082 | –
Clc1ncc(OC[C@@H]2CCN2)cc1Br | 1.9 | 0.015 | –
N#Cc1ccc(OC[C@@H]2CCN2)cn1 | 62 | – | –
Clc1cncc(OC[C@H]2CCN2)c1 | 62 | – | –
Brc1ccc(OC[C@H]2CCN2)cn1 | 0.62 | – | –
Clc1cc(OC[C@@H]2CCN2)cnc1Cl | 0.62 | 0.023 | –
Fc1ccc(OC[C@H]2CCN2)cn1 | 1.9 | 0.066 | –
Clc1ccc(OC[C@@H]2CCN2)cn1 | 0.62 | 0.04 | Max response (IMR-32 [2]): 166%
Fc1ccc(OC[C@@H]2CCN2)cn1 | 6.2 | 0.057 | –
CCc1cncc(OC[C@@H]2CCN2)c1 | >62 | 0.1 | Max response (IMR-32 [4]): 90%
NCc1cncc(OC[C@@H]2CCN2)c1 | >6.2 | 4.4 | –
Cc1nc(Cl)ccc1OC[C@@H]1CCN1 | >62 | 2.4 | –
N#Cc1cncc(OC[C@@H]2CCN2)c1 | >6.2 | 0.025 | –
Clc1ccc(OC[C@H]2CCN2)cn1 [TEBANICLINE] | 0.62 | 0.04 | –
COc1ccc(OC[C@H]2CCN2)cn1 | >62 | – | –
Fc1ncccc1OC[C@H]1CCN1 | >62 | – | –
Brc1cncc(OC[C@@H]2CCN2)c1 | >19 | 0.18 | –
Clc1ccncc1OC[C@H]1CCN1 | >6.2 | 12 | –
Clc1ncc(OC[C@@H]2CCN2)cc1-c1ccccc1 | >6.2 | 0.022 | Max response (IMR-32 [5]): 92%
CCc1ccc(OC[C@@H]2CCN2)cn1 | >6.2 | 19 | –
